In patent publication US7897568B2, “Compositions for treatment of cancer” (priority 2006, dated 2011):
Where a SMILES comes first, the peptide text is derived from it. Where no end group is shown, it is not given here.

Legend:
SNCG = SNCG (Homo sapiens, UniProt O76070); assay: ANS fluorescence of the SNCG-ANK peptide complex; format: binding; design: The SNCG coding region was amplified from the human cDNA clone; GST (N, cleaved yes); made in house; host or cells: Escherichia coli BL21 (DE3); conditions: SNCG 30 μM, ANK peptide 240 μM, 0.02 mg/mL ANS; versus peptide only
Source text: ANS fluorescence was also utilized to study the conformational properties of SNCG and the SNCG-ANK peptide interaction (See FIG. 2C). Changes in ANS fluorescence intensity are frequently used to monitor formation of partially folded intermediates during protein unfolding and refolding (Semisotnov et al. Biopolymers 1991 31:119-128), as well as to analyze the hydrophobic surfaces of proteins (Stryer, L. J. Mol. Biol. 1965 13:482-495). The interaction of ANS with solvent-exposed hydrophobic clusters is accompanied by a considerable increase in the dye fluorescence intensity and a pronounced blue shift of the fluorescence maximum. […] The addition of ANK peptide induced significant changes in ANS fluorescence properties, including a dramatic increase in the fluorescence intensity and a blue shift in λmax. […] Importantly, formation of the SNCG-ANK complex is accompanied by an approximate 20% decrease in ANS fluorescence intensity of only peptide which is affected by the presence of SNCG, confirming the interaction between SNCG and ANK peptide.

MCF7-SNCG cells = assay: Mitotic index and apoptosis by DAPI staining after paclitaxel; format: cell-based; conditions: SNCG cells expressing EGFP-ANK versus pEGFP, paclitaxel 18 hours
Procedure: FIG. 7A through D show expression of EGFP-ANK disrupting the SNCG-mediated inhibition of mitotic checkpoint function as measured by microscopy and flow cytometry. The bar graphs show the expression of EGFP-ANK disrupting the SNCG-mediated inhibition of mitotic checkpoint function, using (FIG. 7A) DAPI and (FIG. 7B) anti-phospho-H^3 staining. For graphs of FIGS. 7A and 7B, the cells treated with 0.5 μM paclitaxel for 18 hours or untreated control cells were fixed with 4% paraformaldehyde for 20 minutes at room temperature. In both cases, the cells were then stained with 1 μg/ml of DAPI or 2 μg/ml anti-phospho-H3 primary and Texas Red goat anti-rabbit secondary antibodies (Invitrogen). Green fluorescent cells were identified for positive transfected cells. For each sample, 200-300 cells randomly chosen from 5 different views under a Nikon fluorescent microscope were scored for interphase, mitotic, or apoptotic based upon nuclei morphology. The data shown were derived from three separate transfections (p<0.01). […]
Two days after transfection, cells were exposed to paclitaxel for 18 hours and numbers of mitotic arrested and apoptotic cells were counted after DAPI staining. […] These cells were also probed with rabbit polyclonal anti-phospho-H^3 and the mitotic index was calculated according to the proportion of the number of H^3 stained EGFP positive cells to total EGFP positive cells (FIG. 7B). […]

Sequence of SNCG (O76070 whole entry): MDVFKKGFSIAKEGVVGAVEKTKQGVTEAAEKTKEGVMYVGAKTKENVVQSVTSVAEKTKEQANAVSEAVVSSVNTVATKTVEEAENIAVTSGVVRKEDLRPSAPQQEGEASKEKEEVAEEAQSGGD

Compound | decrease in ANS fluorescence intensity on formation of the SNCG-ANK complex (SNCG) [%] | increase in the number of mitotic arrested cells (MCF7-SNCG cells) [fold]
CC[C@H](C)[C@H](NC(=O)[C@H](CS)NC(=O)CNC(=O)[C@H](CC(C)C)NC(=O)[C@H](Cc1c[nH]cn1)NC(=O)CNC(=O)[C@H](Cc1c[nH]cn1)NC(=O)[C@H](CCC(N)=O)NC(=O)[C@H](CO)NC(=O)[C@H](C)NC(=O)[C@@H](NC(=O)[C@H](Cc1c[nH]cn1)NC(=O)[C@H](CC(C)C)NC(=O)[C@H](C)NC(=O)[C@H](CO)NC(=O)[C@H](CC(N)=O)NC(=O)CNC(=O)[C@H](CCCCN)NC(C)=O)C(C)C)C(=O)N[C@@H](CCC(N)=O)C(=O)N[C@H](C(=O)N[C@@H](CC(C)C)C(=O)N[C@H](C(=O)N[C@@H](CCCNC(=N)N)C(=O)N[C@@H](Cc1ccc(O)cc1)C(=O)NCC(=O)N[C@@H](C)C(=O)N[C@@H](CC(N)=O)C(=O)N[C@H](C(=O)N[C@H](C(=O)N[C@@H](CCSC)C(=O)N[C@@H](CCC(N)=O)C(=O)N[C@@H](CC(N)=O)C(=O)N[C@@H](Cc1c[nH]cn1)C(=O)NCC(N)=O)[C@@H](C)O)C(C)C)C(C)C)[C@@H](C)O [ANK peptide] (Ac-KGNSALHVASQHGHLGCIQTLVRYGANVTMQNHG-NH2) | ~20 | –
EGFP-ANK: ANK peptide expressed as a fusion protein with its amino-terminal linked to EGFP protein, approximately 37 kDa ({EGFP}-KGNSALHVASQHGHLGCIQTLVRYGANVTMQNHG) | – | ~2
